Measurements taken from patent publication US5077280A, “Treatment of viral infections” (priority 1988, dated 1991).

How the values were obtained:
[1] = tested on: bone marrow cell growth (granulocyte-macrophages and erythrocytes); details: patients; cited from earlier work
[2] = tested on: human CFU-GM cells; assay: human CFU-GM cell proliferation; type: cell-based; details: concentrations as high as 100 μM
[3] = tested on: human bone marrow cells; assay: toxicity for human bone marrow cells; type: cell-based
[4] = tested on: bone marrow cells; type: cell-based, human; details: 5 μM AZT for 2 hours; 50-100 μM of uridine (and also cytidine)
[5] = tested on: viral replication (reverse transcriptase); assay: suppression of viral replication (assessed by inhibition of reverse transcriptase); type: cell-based; details: combination molar ratios (uridine/AZT) as high as 10,000/1
[6] = in vivo; cited from earlier work

SMILES: Cc1cn([C@H]2C[C@H](N=[N+]=[N-])[C@@H](CO)O2)c(=O)[nH]c1=O [AZT, 3'-azido-3'deoxythymidine]
- common complication of AZT therapy [1]: suppression of bone marrow cell growth

SMILES: O=c1[nH]c(=O)n(COCCO)cc1Cc1ccccc1 [BAU, benzylacyclouridine]
- effect on human CFU-GM cell proliferation [2]: no substantial effect
- toxicity per se for human bone marrow cells [3]: non-toxic

SMILES: Nc1ccn([C@@H]2O[C@H](CO)[C@@H](O)[C@H]2O)c(=O)n1 [cytidine]
- reversal of toxic effects of antiviral nucleoside analogues [4]: essentially completely reversed

SMILES: O=c1ccn([C@@H]2O[C@H](CO)[C@@H](O)[C@H]2O)c(=O)[nH]1 [uridine]
- impairment of suppression of viral replication [5]: no impairment of suppression of viral replication
- clearance by the body [6]: cleared rapidly
- reversal of toxic effects of antiviral nucleoside analogues [4]: essentially completely reversed
